Measured values reported in patent US20120141384A1, “ANTIBACTERIAL CONJUGATED BORONIC ACIDS AND PHARMACEUTICAL COMPOSITIONS THEREOF” (priority 2008, published 2012).

Assays:
[1] = Solubility and compatibility of FPB in the carrier; type: physicochemical; settings: for solubility in the carrier: 20 mM and 40 mM
Source text: The active agent FPB is soluble in the carrier.

[2] = test system: Staphylococcus aureus (ATCC No. 6538); experiment: Antimicrobial efficacy (challenge) test, plate count; type: cell-based; settings: 30 mM FPB aqueous solution, 25° C., initial contamination 5.2 × 10^5 CFU/g
[3] = test system: Staphylococcus aureus (ATCC No. 6538); experiment: as above; type: cell-based; settings: for No. of Surviving Microorganisms CFU/g: 25° C., initial contamination 5.2 × 10^5 CFU/g; for antimicrobial effect in words: following one day of exposure
Method: (§1) The purpose of this study was to assess the antimicrobial efficacy of 2-Formylphenyl boronic acid (FPB) aqueous solutions, in different concentrations of 10 mM, 20 mM and 40 mM. 2-FBP was obtained from Sigma Aldrich. Test Procedure: The test consisted of challenging the test solutions with specified microorganisms, storing the inoculated preparations at a prescribed temperature, removing the inoculated samples at specified intervals of time and counting the number of viable organisms in the withdrawn samples using a plate count procedure. The technical details were as follows: • The test was conducted in 20 g samples. • Each sample was separately inoculated by one of the test organisms. • The inoculated containers were incubated at 25° C. together with an uninoculated sample. • The inoculated container with P. acnes was incubated under anaerobic conditions at the same temperature. • The culture media for P. acnes was Brain Heart Infusion Agar instead of Tryptic Soy Agar. Formulations were challenged by introducing the following microorganisms: Staphylococcus aureus (ATCC No. 6538) Counting of microorganisms in the inoculated samples was performed 1, 2 and 7 days following inoculation. The number of colony-forming units (cfu/g) determined at each incubation time point was compared to the number of cfu/g measured in non-inoculated control samples of FPB solutions. Antimicrobial effectiveness results, expressed as colony forming units of surviving microorganisms in the FPB solutions (cfu/g), are detailed in Tables 1-3.

[4] = test system: Escherichia coli (ATCC No. 8739); experiment: as above; type: cell-based; settings: for No. of Surviving Microorganisms CFU/g: 25° C., initial contamination 2.8 × 10^5 CFU/g; for antimicrobial effect in words: following one day of exposure
Method: as §1, with “2-FBP” for “The purpose of this study was to assess the antimicrobial efficacy of 2-Formylphenyl boronic acid (FPB) aqueous solutions, in different concentrations of 10 mM, 20 mM and 40 mM. 2-FBP”, “Escherichia coli” for “Staphylococcus aureus”, “8739)” for “6538)”

[5] = Stability of 2-FBA under formulation conditions, amount by chromatography; type: physicochemical
Method: 2-Formylphenyl Boronic Acid (2-FBA) was exposed to various formulation conditions, in order to assess its optimized formulation stability properties. The amount of 2-FBA was assessed prior to the experiment and following the exposure to the different conditions by chromatography. The conditions are detailed in the following Table.

[6] = test system: Pseudomonas aeruginosa (ATCC No. 9027); experiment: Antimicrobial efficacy (challenge) test, plate count; type: cell-based; settings: for No. of Surviving Microorganisms CFU/g: 25° C., initial contamination 4.3 × 10^6 CFU/g; for antimicrobial effect in words: following one day of exposure
Method: as §1, with “2-FBP” for “The purpose of this study was to assess the antimicrobial efficacy of 2-Formylphenyl boronic acid (FPB) aqueous solutions, in different concentrations of 10 mM, 20 mM and 40 mM. 2-FBP”, “Pseudomonas aeruginosa” for “Staphylococcus aureus”, “9027)” for “6538)”

[7] = test system: Propionbacterium acnes ATCC 11827; experiment: Antimicrobial efficacy (challenge) test, plate count, anaerobic incubation; type: cell-based; settings: 30 mM FPB aqueous solution, 25° C. anaerobic, initial contamination 4.1 × 10^5 CFU/g
[8] = 10 mM FPB aqueous solution, 1 week
[9] = 10 mM FPB aqueous solution, 1 days
[10] = 10 mM FPB aqueous solution, 2 days
[11] = 20 mM FPB aqueous solution, 1 week
[12] = 20 mM FPB aqueous solution, 1 days
[13] = 20 mM FPB aqueous solution, 2 days
[14] = Solution 1 (10 mM FPB), within two days of exposure
[15] = solutions, concentrations of 10 mM, 20 mM and 40 mM

O=Cc1ccccc1B(O)O [FPB, 2-Formylphenyl boronic acid]
interference with foam formation ([1]; emulsion carrier (Example 2)): does not interfere | interference with the formation of an emulsion ([1]; emulsion carrier (Example 2)): does not interfere | solubility in the carrier ([1]; emulsion carrier (Example 2)): soluble | interference with foam formation ([1]; gel carrier (Example 3)): does not interfere | solubility in the carrier ([1]; gel carrier (Example 3)): soluble | No. of Surviving Microorganisms CFU/g ([2]; 1 week): <10 CFU/g | No. of Surviving Microorganisms CFU/g ([2]; 1 days): <10 CFU/g | No. of Surviving Microorganisms CFU/g ([2]; 2 days): <10 CFU/g | No. of Surviving Microorganisms CFU/g [3, 8]: <10 CFU/g | No. of Surviving Microorganisms CFU/g [3, 9]: 4.5 × 10^4 CFU/g | No. of Surviving Microorganisms CFU/g [3, 10]: 5.4 × 10^2 CFU/g | No. of Surviving Microorganisms CFU/g [3, 11]: <10 CFU/g | No. of Surviving Microorganisms CFU/g [3, 12]: <10 CFU/g | No. of Surviving Microorganisms CFU/g [3, 13]: <10 CFU/g | log reduction of the count from the initial load [3, 14]: 2.0 log | antimicrobial effect in words ([3]; Solution 2 (20 mM FBA)): completely eradicated | antimicrobial effect in words ([3]; Solution 3 (40 mM FBA)): completely eradicated | effectiveness (conclusion) [3, 15]: effective | No. of Surviving Microorganisms CFU/g [4, 8]: <10 CFU/g | No. of Surviving Microorganisms CFU/g [4, 9]: 6.4 × 10^4 CFU/g | No. of Surviving Microorganisms CFU/g [4, 10]: <10 CFU/g | No. of Surviving Microorganisms CFU/g [4, 11]: <10 CFU/g | No. of Surviving Microorganisms CFU/g [4, 12]: 7.6 × 10^3 CFU/g | No. of Surviving Microorganisms CFU/g [4, 13]: <10 CFU/g | No. of Surviving Microorganisms CFU/g ([4]; 30 mM FPB aqueous solution, 1 week): <10 CFU/g | No. of Surviving Microorganisms CFU/g ([4]; 30 mM FPB aqueous solution, 1 days): <10 CFU/g | No. of Surviving Microorganisms CFU/g ([4]; 30 mM FPB aqueous solution, 2 days): <10 CFU/g | log reduction of the count from the initial load [4, 14]: 2.0 log | antimicrobial effect in words ([4]; Solution 2 (20 mM FBA)): completely eradicated | antimicrobial effect in words ([4]; Solution 3 (40 mM FBA)): completely eradicated | effectiveness (conclusion) [4, 15]: effective | stability in words ([5]; UV light): relatively stable | stability in words ([5]; heat): relatively stable | stability in words ([5]; in the presence of H2O2): underwent degradation | stability in words ([5]; in the presence of HCl (0.1 N)): underwent degradation | stability in words ([5]; in the presence of NaOH (0.1 N)): relatively stable | No. of Surviving Microorganisms CFU/g [6, 8]: <10 CFU/g | No. of Surviving Microorganisms CFU/g [6, 9]: 4.3 × 10^4 CFU/g | No. of Surviving Microorganisms CFU/g [6, 10]: 5.0 × 10^1 CFU/g | No. of Surviving Microorganisms CFU/g [6, 11]: <10 CFU/g | No. of Surviving Microorganisms CFU/g [6, 12]: <10 CFU/g | No. of Surviving Microorganisms CFU/g [6, 13]: <10 CFU/g | log reduction of the count from the initial load [6, 14]: 2.0 log | antimicrobial effect in words ([6]; Solution 2 (20 mM FBA)): completely eradicated | antimicrobial effect in words ([6]; Solution 3 (40 mM FBA)): completely eradicated | effectiveness (conclusion) [6, 15]: effective | No. of Surviving Microorganisms CFU/g ([7]; 1 week): <10 CFU/g | No. of Surviving Microorganisms CFU/g ([7]; 1 days): <10 CFU/g | No. of Surviving Microorganisms CFU/g ([7]; 2 days): <10 CFU/g
